Some test systems named below: HL-60(TB) leukemia; SNB-19 CNS; SF-539 CNS; SF-268 CNS; NCI-H226 lung; NCI-H460 lung; MALME-3M melanoma; UO-31 renal; KM12 colon; 786-0 renal.
Holding throughout (experiment): NCI anticancer screen, dose series, 48 h

Where “and” joins values, the source holds several entries; their conditions need not be identical. Identical values can stand only once.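 Growth conditions: 96-well plates. Treatment: test compound, 48 hours, 5 concentrations. Analysis: linear interpolation between bracketing concentrations; unreached endpoints set to highest concentration. GI50 = concentration required for 50% inhibition of growth. TGI is the concentration that stops growth completely.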

Regarding `COc1cc2c3c(n(CCCN)c(=O)c2cc1OC)-c1ccc([N+](=O)[O-])cc1C3=O`, the GI50 was 17.8 µM with HL-60(TB) leukemia; 3110 nM in the test with SNB-19 CNS; 3.76 µM in the test on SF-539 CNS; 7740 nM in the test with SF-268 CNS; 17400 nM in the test with NCI-H226 lung; 572 nM in the test with NCI-H460 lung. Further, the GI50 in the test with MALME-3M melanoma is 16700 nM; in the test on UO-31 renal, 222 nM; with KM12 colon it was 14.6 µM; in the test on 786-0 renal it was 1660 nM. The TGI is 37.8 µM with HL-60(TB) leukemia; 18.3 µM in the test on SNB-19 CNS; 14.9 µM with SF-539 CNS; 24.4 µM in the test on SF-268 CNS; 38.3 µM in the test on NCI-H226 lung; 2.35 µM with NCI-H460 lung. Also, the TGI in the test on MALME-3M melanoma came to 40.5 µM; in the test on UO-31 renal it was 6.22 µM; in the test on KM12 colon it was 31 µM; in the test on 786-0 renal, 3.55 µM.

Take `C=CCn1c(=S)sc2c(C(=O)OCC)c3c(C)cc(C)cn3c2c1=O`: the TGI in the test with HL-60(TB) leukemia, in the test with SNB-19 CNS, with SF-539 CNS, in the test on SF-268 CNS, in the test on NCI-H226 lung and in the test with NCI-H460 lung was more than 100 µM in each case. Further, the TGI in the test on MALME-3M melanoma, in the test with UO-31 renal and in the test on 786-0 renal was more than 100 µM in each case.

On to `c1ccc(-c2nn3c(c2-c2ccnc4cc(OCCN5CCOCC5)ccc24)CCC3)nc1`, for which the GI50 in the test on HL-60(TB) leukemia was more than 100 µM; in the test on SNB-19 CNS, more than 100000 nM; with SF-539 CNS, more than 100 µM; in the test with SF-268 CNS, more than 77100 nM; in the test on NCI-H226 lung, more than 81200 nM; in the test with NCI-H460 lung, 33600 nM. Besides, the GI50 was 90300 nM with MALME-3M melanoma, 10800 nM with UO-31 renal, 59.4 µM with KM12 colon and more than 100000 nM with 786-0 renal. Moreover, the TGI in the test on HL-60(TB) leukemia, in the test on SNB-19 CNS, with SF-539 CNS, in the test with SF-268 CNS, in the test on NCI-H226 lung and in the test on NCI-H460 lung was more than 100 µM throughout. Also, the TGI in the test on MALME-3M melanoma, in the test with UO-31 renal, with KM12 colon and with 786-0 renal was more than 100 µM throughout.

With `COc1ccc(/C=C(/c2ccccc2)[N+](=O)[O-])c(OC)c1`, the GI50 is 1.15 µM in the test on HL-60(TB) leukemia; 1650 nM in the test with SNB-19 CNS; 1.58 µM in the test with SF-539 CNS; 1650 nM in the test with SF-268 CNS; 1950 nM in the test on NCI-H226 lung; 1870 nM in the test on NCI-H460 lung. Also, the GI50 in the test with MALME-3M melanoma is 1580 nM; in the test with UO-31 renal it was 1230 nM; in the test on KM12 colon, 1.72 µM; in the test on 786-0 renal it was 1620 nM. In addition, the TGI with HL-60(TB) leukemia was 5.25 µM; with SNB-19 CNS, 3.05 µM; in the test on SF-539 CNS it was 2.94 µM; in the test with SF-268 CNS, 3.14 µM; with NCI-H226 lung, 4.49 µM; with NCI-H460 lung, 3.87 µM. For the same compound, the TGI in the test on MALME-3M melanoma was determined as 3.3 µM; in the test with UO-31 renal, 2.47 µM; with KM12 colon, 3.31 µM; in the test with 786-0 renal, 3.16 µM.

On to `CC(C)C1CO[C@]2(C)CCC(=O)N12` (some centres not stated), for which the TGI with HL-60(TB) leukemia, in the test with SNB-19 CNS, in the test on SF-539 CNS, in the test with SF-268 CNS, in the test with NCI-H226 lung and with NCI-H460 lung was more than 100 µM in each case. Also, the TGI in the test on MALME-3M melanoma, with UO-31 renal, with KM12 colon and in the test on 786-0 renal was more than 100 µM in each case.

With `O=[N+]([O-])c1cc[n+]([O-])c2ccccc12`, the GI50 was 1.05 µM in the test on HL-60(TB) leukemia; 374 nM with SNB-19 CNS; 0.181 µM in the test with SF-539 CNS; 282 nM in the test with SF-268 CNS; 311 nM in the test with NCI-H226 lung; 33 nM in the test with NCI-H460 lung. Also, the GI50 in the test on MALME-3M melanoma was 147 nM; in the test on UO-31 renal, 191 nM; with KM12 colon it was 0.0832 µM; in the test on 786-0 renal, 217 nM. The TGI in the test on HL-60(TB) leukemia stood at 4.29 µM; with SNB-19 CNS, 2.91 µM; with SF-539 CNS, 0.541 µM; in the test on SF-268 CNS, 1.24 µM; in the test with NCI-H226 lung, 1.38 µM; in the test with NCI-H460 lung, 0.162 µM. For the same compound, the TGI in the test on MALME-3M melanoma was found to be 1.12 µM; in the test with UO-31 renal, 0.604 µM; in the test on KM12 colon, 0.332 µM; with 786-0 renal, 0.753 µM.

Turning to `O=C(O)C[C@H](O)C[C@H](O)/C=C/c1c(C2CC2)nc2ccccc2c1-c1ccc(F)cc1`, the GI50 with HL-60(TB) leukemia was 4.55 µM and 25.6 µM; in the test on SF-539 CNS, 43.7 µM and 5.46 µM; in the test on SF-268 CNS it was 659 nM and 381 nM; in the test with NCI-H226 lung, 11700 nM and 2220 nM; in the test with NCI-H460 lung, 21200 nM and 4920 nM; in the test on MALME-3M melanoma, more than 100000 nM. For the same compound, the GI50 is 16000 nM and 3480 nM in the test on UO-31 renal; 34.2 µM and 24.8 µM in the test with KM12 colon; 21600 nM and 2860 nM in the test with 786-0 renal. Besides, the TGI in the test with HL-60(TB) leukemia was more than 100 µM; with SNB-19 CNS it was more than 100 µM; with SF-539 CNS it was more than 100 µM; in the test on SF-268 CNS it was more than 100 µM; in the test with NCI-H226 lung, 51.6 µM and 8.01 µM; with NCI-H460 lung it was more than 100 µM. In addition, the TGI in the test with MALME-3M melanoma, with UO-31 renal, in the test with KM12 colon and in the test with 786-0 renal was more than 100 µM in each case.

As for `C[N+]1=c2c3cccc4cccc(c(=O)n2CC1)c43`, the TGI in the test on HL-60(TB) leukemia was 46.3 µM; with SF-539 CNS, 32.2 µM; with SF-268 CNS, 35.1 µM; with NCI-H226 lung, 28.7 µM; with NCI-H460 lung, 28.2 µM; in the test with MALME-3M melanoma, 22.6 µM. The values for the TGI in the test on UO-31 renal, with KM12 colon and with 786-0 renal were 32.4 µM, 42.3 µM and more than 100 µM, respectively.

With `O=C(CCN1CCCC1)Nc1ccc2c(NCc3ccccc3)c3ccccc3nc2c1`, the GI50 with HL-60(TB) leukemia was 0.587 µM; in the test with SNB-19 CNS it was 408 nM; in the test on SF-539 CNS, 0.422 µM; in the test with SF-268 CNS it was 457 nM; in the test with NCI-H226 lung, 551 nM; with NCI-H460 lung, 313 nM. The GI50 in the test with MALME-3M melanoma was 605 nM; in the test on UO-31 renal it was 1550 nM; with KM12 colon it was 0.439 µM; with 786-0 renal, 684 nM. In addition, the TGI in the test with HL-60(TB) leukemia worked out at 2.8 µM; in the test with SNB-19 CNS it was 1.83 µM; in the test with SF-539 CNS, 1.58 µM; with SF-268 CNS, 1.85 µM; in the test on NCI-H226 lung it was 2.91 µM; in the test on NCI-H460 lung, 1.07 µM. Besides, the TGI was 1.99 µM in the test on MALME-3M melanoma, 4.05 µM in the test on UO-31 renal, 1.85 µM in the test on KM12 colon and 1.99 µM in the test on 786-0 renal.

The values above are taken from PubChem BioAssay (NCI).
